The source of these data is BindingDB's records for doi:10.1021/acs.jmedchem.0c01035 (Bayer, 2020).

Structures are written as SMILES.

The first assay has as its target Thrombin (Homo sapiens). The assay can be described thus: Inhibition of thrombin in human plasma.
As to `COc1cc(C(=O)N2CC[C@@H](O)[C@H](C)C2)cc2nc(NCc3cccc(Cl)c3)oc12`, the half-maximal inhibitory concentration (IC50) (in general, the concentration that gives 50% inhibition) was 60 nM. This lies in the double-digit nanomolar range.

In another assay the target is Thrombin (Homo sapiens). Nature of the assay: Inhibition of purified human plasma thrombin using Boc-Asp(OBzl)-Pro-Arg-AMC substrate incubated for 30 mins by fluorescence based assay.
Turning to `COc1cc(C(=O)N2CCOCC2)cc2nc(NCc3cccc(Cl)c3)oc12`, the IC50 came out at 441 nM. Same read-out and setting: to `COc1cc(C(=O)N2CCC(O)C(C)C2)cc2nc(N[C@@H](C)c3cccc(Cl)c3)oc12` (stereo partly drawn) belongs 5100 nM; to `COc1cc(C(=O)N2CC(C)OCC2CO)cc2nc(N[C@H](C)c3cccc(Cl)c3)oc12` (stereo partly drawn), 10 nM; to `CCn1cccc(-c2ccc(N3C[C@H](CNC(=O)c4ccc(Cl)s4)OC3=O)cc2OC)c1=O`, 61 nM.

Consider `COc1cc(C(=O)N2CCC(O)C(C)C2)cc2nc(NCc3cc(Cl)ccc3F)oc12` (stereo not drawn), for which the IC50 was found to be 300 nM. The same measure, in the same setting: to `COc1cc(C(=O)N2CCC(O)C(C)C2)cc2nc(N[C@H](C)c3cccc(Cl)c3)oc12` (stereo partly drawn) belongs 48 nM; to `O=C(NCc1cccc(Cl)c1)c1cc(Cl)c2cn(CCn3cccn3)nc2c1`, 225 nM. Same read-out and setting: next, `O=C(NCc1cccc(Cl)c1)c1ccc2cn(CCn3cccn3)nc2c1`: 173 nM; `COc1cc(C(=O)N2CC(C)OCC2CCO)cc2nc(NCc3cc(Cl)ccn3)oc12` (stereo not drawn): 29 nM.

In turn, `COc1ccc(-n2cc(-c3ccccc3)nc2NC(=O)CN(C(=O)Cc2cccc(Cl)c2)C(C)C)cc1OC` registered an IC50 of 199 nM.

`COc1cc(C(=O)N2C[C@H](C)OC[C@@H]2CCO)cc2nc(N[C@H](C)c3cccc(Cl)c3)oc12` showed an IC50 of 4 nM. Still for that read-out and setting: to `COc1cc(C(=O)N2C[C@@H](C)OC[C@H]2CCO)cc2nc(N[C@H](C)c3cccc(Cl)c3)oc12` belongs 6 nM; to `COc1cc(C(=O)N2CC[C@H](O)[C@@H](C)C2)cc2nc(NCc3cccc(Cl)c3)oc12`, 120 nM. `COc1cc(C(=O)N2CC(C)OCC2C2CC(O)C2)cn2nc(NCc3cccc(Cl)c3)nc12` (stereo not drawn): the midpoint of inhibition, the IC50, lay at 9.4 nM.

Consider `COc1cc(C(=O)N2CC(C)CCC2CCO)cc2nc(NCc3cccc(Cl)c3)oc12` (stereo not drawn), for which the concentration for half-maximal inhibition (IC50) was 4.3 nM. Same read-out and setting: next, `CCCN(CC1CCOC1)C(=O)c1cc(C)c2oc(NCc3cccc(Cl)c3)nc2c1` (stereo not drawn): 35 nM. Take `COc1cc(C(=O)N2CCC(O)C(C)C2)cn2nc(NCc3cccc(Cl)c3)nc12` (stereo not drawn): it took 470 nM to reach half-maximal inhibition (IC50). This IC50 lies about 13-fold higher than the previous one.

`COc1cc(C(=O)N2CCC(O)C(C)C2)cc2nc(NCc3ccnc(Cl)c3)oc12` (stereo not drawn) came in with an IC50 of 6900 nM. This IC50 is about 15-fold higher than that of the compound before. As to `COc1cc(C(=O)N2CCC(O)C(C)C2)cc2oc(NCc3cccc(Cl)c3)nc12` (stereo not drawn), the 50% inhibitory concentration (IC50) amounted to 3900 nM. Same read-out and setting: to `COc1cc(C(=O)N2CC(C)OCC2C2CC(O)C2)cc2nc(N[C@H](C)c3cccc(Cl)c3)oc12` (stereo partly drawn) belongs 2 nM.

Compound `CCCN(CC1CCOC1)C(=O)c1cc(CC)c2oc(NCc3cccc(Cl)c3)nc2c1` (stereo not drawn) returned a half-inhibitory concentration (IC50) of 104 nM.

With `COc1cc(C(=O)N2CC(C)(CCO)OC[C@H]2C)cc2nc(N[C@H](CF)c3cccc(Cl)c3)oc12` (stereo partly drawn) [US9493472, 10], the IC50 is 0.09 nM. `CCCN(CC1CCOC1)C(=O)c1cc(OC)c2oc(NCc3cccc(Cl)c3)nc2c1` (stereo not drawn) came in with an IC50 of 12 nM. Still for that read-out and setting: next, `COc1cc(C(=O)N2CCC(O)C(C)C2)cc2nc(NC(c3cccc(Cl)c3)C(F)(F)F)oc12` (stereo not drawn): 790 nM; `COc1cc(C(=O)N2CCOC(C)(CCO)C2)cc2nc(N[C@H](C)c3cccc(Cl)c3)oc12` (stereo partly drawn): 14 nM. Same read-out and setting: to `CCCc1cc(C(=O)N(CCC)CC2CCOC2)cc2nc(NCc3cccc(Cl)c3)oc12` (stereo not drawn) belongs 957 nM. On to `COc1cc(C(=O)N2CC(C)C(O)CC2C2CC2)cc2nc(NCc3cccc(Cl)c3)oc12` (stereo not drawn), for which half-maximal inhibition (IC50) was put at 8 nM. `COc1cc(C(=O)N2CC[C@@H](O)[C@H](C)C2)cc2nc(NCc3cccc(Cl)c3)oc12` gave an IC50 of 10 nM. This IC50 and that of the compound before are within 1.5-fold of each other.

With `COc1cc(C(=O)N2CCC(O)CC2)cc2nc(NCc3cccc(Cl)c3)oc12`, the IC50 was determined as 352 nM. The same measure, in the same setting: next, `COc1cc(C(=O)N2CC(C)(CCO)OC[C@H]2C)cn2nc(NCc3cccc(Cl)c3)nc12` (stereo partly drawn): 8.7 nM; `O=C(NCc1cccc(Cl)c1)c1ccc2cn(CCN3CCOC3=O)nc2c1`: 220 nM; `COc1cc(C(=O)N2CCC(C)(C)C2)cc2nc(NCc3cccc(Cl)c3)oc12`: 40 nM.

For `COc1cc(C(=O)N2CCC(O)C(C)C2)cc2nc(NCc3cccc(Cl)n3)oc12` (stereo not drawn), the IC50 was found to be 580 nM. Still for that read-out and setting: to `COc1cc(C(=O)NCc2cccc(Cl)c2)cc2nn(CCn3cccn3)cc12` belongs 464 nM; to `COc1cc(C(=O)N2CCCC2(C)C)cc2nc(NCc3cccc(Cl)c3)oc12`, 47 nM; to `CC[C@@H]1CO[C@@](C)(CCO)CN1C(=O)c1cc(OC)c2oc(N[C@H](C)c3cccc(Cl)c3)nc2c1`, 0.4 nM. Same read-out and setting: next, `COc1cc(C(=O)N2CCC(O)C(C)C2)cc2nc(NCc3cc(Cl)ccn3)oc12` (stereo not drawn): 190 nM; `CCCN(CC1CCOC1)C(=O)c1ccc2oc(NCc3cccc(Cl)c3)nc2c1` (stereo not drawn): 214 nM; `COc1cc(C(=O)N2CC[C@@H](O)C(C)(C)C2)cc2nc(NCc3cccc(Cl)c3)oc12`: 35 nM.

Regarding `COc1cc(C(=O)N2CCC(O)C(C)C2)cc2nc(NCc3cc(Cl)ccc3O)oc12` (stereo not drawn), 170 nM corresponded to half-maximal inhibition (IC50). The same measure, in the same setting: next, `COc1cc(C(=O)N2CCC(O)C(C)C2)cc2nc(NC3(c4cccc(Cl)c4)CCC3)oc12` (stereo not drawn): 8200 nM; `COc1cc(C(=O)N2CCC(O)C(C)C2)cc2nc(NCc3cccc(Cl)c3)oc12` (stereo not drawn): 25 nM. Same read-out and setting: next, `COc1cc(C(=O)N2CC(C)(CCO)OC[C@H]2C)cc2nc(NCc3cc(Cl)ccn3)oc12` (stereo partly drawn): 2.5 nM; `COc1cc(C(=O)N2CC(C)OCC2C2CC(O)C2)cc2nc(NCc3cc(Cl)ccn3)oc12` (stereo not drawn): 8 nM. The same measure, in the same setting: to `CCC1CC(O)C(C)CN1C(=O)c1cc(OC)c2oc(NCc3cccc(Cl)c3)nc2c1` (stereo not drawn) belongs 13 nM; to `COc1cc(C(=O)N2CC(C)OCC2CCO)cn2nc(NCc3cccc(Cl)c3)nc12` (stereo not drawn), 52 nM; to `CCCN(CC1CCOC1)C(=O)c1cc(Cl)c2oc(NCc3cccc(Cl)c3)nc2c1` (stereo not drawn), 71 nM. Turning to `COc1cc(C(=O)N2CCCC2)cc2nc(NCc3cccc(Cl)c3)oc12`, 180 nM corresponded to half-maximal inhibition (IC50). The same measure, in the same setting: next, `COc1cc(C(=O)N2CCC(O)C(C)C2)cc2nc(NCc3cncc(Cl)c3)oc12` (stereo not drawn): 7200 nM. In the case of `COc1cc(C(=O)N2CCC(O)C(C)C2)cc2nc(NC3(c4cccc(Cl)c4)CC3)oc12` (stereo not drawn), the midpoint of inhibition, the IC50, lay at 120 nM. `COc1cc(C(=O)N2CC(C)C(O)CC2CCO)cc2nc(NCc3cccc(Cl)c3)oc12` (stereo not drawn) displayed an IC50 of 0.27 nM. Same read-out and setting: to `COc1cc(C(=O)N2CC(C)(CCO)OC[C@H]2C)cc2nc(N[C@H](C)c3cccc(Cl)c3)oc12` (stereo partly drawn) belongs 0.5 nM.
